Reference: PubChem BioAssay AID602328 (NMMLSC, 2012)
Active and inactive are the calls of the source. The rule behind the calls is not given here.

Molecular target: Botulinum neurotoxin type A (Clostridium botulinum (strain Hall / ATCC 3502 / NCTC 13319 / Type A)) (UniProt P0DPI1)
Test: inhibition of botulinum toxin A LC cleavage – biochemical, multiplex microsphere flow cytometry, cherry pick 02, dose response (AID 602328)
Conditions: BoNT/A LC substrate cleavage

Chain of Botulinum neurotoxin type A (Clostridium botulinum (strain Hall / ATCC 3502 / NCTC 13319 / Type A)) (P0DPI1 whole entry, looked up): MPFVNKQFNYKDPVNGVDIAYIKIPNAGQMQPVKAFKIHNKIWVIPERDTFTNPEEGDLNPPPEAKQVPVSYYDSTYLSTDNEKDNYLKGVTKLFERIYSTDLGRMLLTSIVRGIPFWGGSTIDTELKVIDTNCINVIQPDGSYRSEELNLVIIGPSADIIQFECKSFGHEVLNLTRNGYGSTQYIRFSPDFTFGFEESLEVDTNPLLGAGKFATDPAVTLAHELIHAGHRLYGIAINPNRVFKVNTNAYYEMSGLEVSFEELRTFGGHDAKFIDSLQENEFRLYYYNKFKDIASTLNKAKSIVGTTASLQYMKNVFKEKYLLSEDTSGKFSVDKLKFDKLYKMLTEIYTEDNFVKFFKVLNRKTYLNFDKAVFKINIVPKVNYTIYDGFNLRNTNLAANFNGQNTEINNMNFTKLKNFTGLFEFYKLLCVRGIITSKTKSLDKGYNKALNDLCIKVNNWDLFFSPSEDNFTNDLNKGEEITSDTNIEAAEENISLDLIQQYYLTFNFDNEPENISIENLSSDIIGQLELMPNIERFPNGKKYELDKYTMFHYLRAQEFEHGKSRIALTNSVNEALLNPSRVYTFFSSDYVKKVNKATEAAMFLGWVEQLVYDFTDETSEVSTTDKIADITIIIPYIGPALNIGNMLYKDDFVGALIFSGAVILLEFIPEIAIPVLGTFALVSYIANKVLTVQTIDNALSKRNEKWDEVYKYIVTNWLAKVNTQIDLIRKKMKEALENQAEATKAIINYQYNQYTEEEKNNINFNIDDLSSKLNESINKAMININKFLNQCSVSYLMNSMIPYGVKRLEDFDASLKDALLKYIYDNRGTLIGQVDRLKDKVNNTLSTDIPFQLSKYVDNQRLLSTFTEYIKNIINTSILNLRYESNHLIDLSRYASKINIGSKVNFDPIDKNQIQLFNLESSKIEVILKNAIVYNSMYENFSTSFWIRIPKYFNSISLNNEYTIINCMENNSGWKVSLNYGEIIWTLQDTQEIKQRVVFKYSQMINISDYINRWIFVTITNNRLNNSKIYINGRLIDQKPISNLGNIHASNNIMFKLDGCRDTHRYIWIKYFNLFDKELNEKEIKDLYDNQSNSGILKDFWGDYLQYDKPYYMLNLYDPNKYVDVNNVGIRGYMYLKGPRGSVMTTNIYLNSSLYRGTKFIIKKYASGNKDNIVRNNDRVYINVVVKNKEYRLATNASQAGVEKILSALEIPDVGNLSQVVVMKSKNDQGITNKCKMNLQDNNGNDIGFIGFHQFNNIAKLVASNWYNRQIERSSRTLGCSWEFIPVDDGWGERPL

With `Oc1[nH]c(N=C2N=c3ccccc3=N2)c2ccccc12` as the compound, how does the IC50 read?
The IC50 was > 20 µM (inactive).

With `O=c1c(/C=C(\O)c2ccccc2)nc2ccccc2n1-c1ccccc1` as the compound, how does the IC50 read?
The IC50 was > 20 µM (inactive).
